Source: US8673882B2, “Inhibitors of autotaxin” (University of Tennessee Research Foundation, priority 2011, dated 2014)
Entries after “also recorded” stand apart in the source; their conditions may differ. Read-outs that look alike come from different tables or passages of the source.

What was measured:
recombinant human ATX = recombinant human ATX (Homo sapiens, UniProt Q13822); test: Autotaxin inhibition screening assay (FS-3 FRET substrate); assay type: biochemical; conditions: for remaining activity at 10 µM: 1 μM FS-3, 37° C., read-out: ATX Activity, % control (10 μM); for inhibition at 10 µM: read-out: inhibition (reduction) of FS3 hydrolysis
Description: A 10 μM concentration of the compound is added to 2 nM recombinant human ATX and the FRET (Fluorescence Resonance Energy Transfer) ATX substrate FS-3.
As the first level of screen, 50 μl of recombinant-ATX (2 nM in final concentration) in assay buffer [(Tris 50 mM, NaCl 140 mM, KCl 5 mM, CaCl2 1 mM, MgCl2 1 mM (pH 8.0)] was mixed with 25 μL of FS-3 (Echelon Biosciences, Inc., Salt lake city, Utah), final concentration 1 μM, and 25 μl of test compound was dissolved in assay buffer with 40 μM bovine serum albumin (Sigma, St. Louis, Mo.) in 96-well Costar black-well plate. FS-3 fluorescence at excitation and emission wavelengths of 485 and 538 nm, respectively, were monitored using a FLEXstation II (Molecular Devices, Sunnyvale, Calif.) for 2 h of incubation at 37° C. The differences between time 0 and 120 min were calculated individually and normalized to the vehicle control. The mean±SD of triplicate samples was expressed as percentage of ATX activity. The ATX activity in the presence of the test compounds was compared to vehicle using the […] p<0.05 was considered significant.
The first level of testing was done using 10 μM concentrations of the compounds shown in Tables 1 and 2 added to 2 nM recombinant human ATX and the FRET substrate FS-3. After a 2 h incubation the amount of FS3 hydrolyzed was measured and the residual ATX activity was expressed as a percent of the vehicle-treated sample less the autolysis of FS3 in the absence of ATX.

[1] = target: recombinant, purified human ATX (Homo sapiens, UniProt Q13822); test: Mechanism of autotaxin inhibition (IC50, Ki, Ki′; FS-3 hydrolysis); assay type: biochemical; conditions: for IC50: 8.3 nM ATX, 1 μM FS-3, 15 μM BSA; for ATX Mechanism of inhibition: FS-3 0.3 μM to 20 μM, inhibitor 0, 0.5× and 2× IC50
Description: The mechanism of inhibition of ATX was determined using recombinant, purified human ATX and FS-3. Final ATX and FS-3 concentrations were 8.3 nM and 1 μM, respectively and the assay buffer with 15 μM fatty acid tree BSA. To calculate IC50, full dose responses were determined for the test compounds. […] Simultaneous non-linear regression, using, WinNonLin® 6.1 (Pharsight, Mountain View, Calif.) was used to assign the mechanism of inhibition. Ki and Ki′ values (the affinity for free enzyme and enzyme substrate complex, respectively) were determined by calculating the lowest averaged percent residuals for each mechanism derived from curve fitting using the Michealis-Menten equations for competitive, uncompetitive, mixed-mode, and non-competitive inhibition.

[2] = tested on: MM1 hepatocarcinoma cells; test: Invasion of HUVEC monolayer by MM1 cells; assay type: cell-based, rat; conditions: for LPC-dependent invasion of the HUVEC monolayer: 1.5 μM LPC, FIG. 14; for basal rate of invasion: compounds alone, without LPC
Description: Cancer metastasis is a complex process that cannon be accurately modeled in vitro. Models that utilize cellular monolayers for the invasion of carcinoma cell come the closest to the situation in vivo. Two different cell monolayers, mouse mesothelium and human vascular endothelium were used to examine the role of ATX in the invasion of MM1 hepatocarcinoma cells and the reduction of such invasion by the chemical compounds of the present application. The mesothelial monolayer is an accepted model for invasion of body cavities lined by serous cells whereas, the HUVEC monolayer is considered to be an in vitro model of hematogenous invasion of carcinomas.
Highly invasive MM1 cells originally isolated from the AH130 rat hepatoma cells were utilized in these studies. The cells were grown in suspension in DMEM supplemented with 10% fetal bovine serum, 2 mM glutamine, 100 units/ml penicillin and 10 μg/ml streptoinycin. Mesothelial cells were isolated and cultured from C57BL/6 mice. Human umbilical cord vascular endothelial cells (HUVEC) were obtained from VEC Technologies Inc., (Rensselaer, N.Y., USA) and were grown in MCDB-131 complete medium containing 10% fetal bovine serum. 90 μg/ml heparin, 10 ng/ml EGF, 1 μg/ml hydrocortisone, 0.2 mg/ml EndoGrowth supplement, 100 units/ml penicillin G, 100 μg/ml streptomycin and 25 μg/ml amphotericin B (all from VEC Technologies). Tumor cell invasion was performed by seeding 1.3×10^5 HUVECs (passage 7) into each well of a 12-well plate pre-coated with 0.2% gelatin (Sigma) and cultured for 2 days to form a confluent monolayer. Mesothelial cells harvested from two-three mice were initially plated in 6-well plates and grown to confluency in DMEM medium supplemented with 10% fetal bovine serum in the presence of 100 units/ml penicillin G and 10 μg/ml streptomycin. When confluent, the mesothelial cells were split into three equal aliquots (˜5×10^4 cells each) and plated to three wells of a 12-well plate and grown to confluence.
Invasion of MM1 cells of Example 53 was determined and the effect of compounds of the present application in reducing the invasion was determined. For all invasion assays, MM1 cells were pre-stained with 2 μg/ml calcein AM (Invitrogen, USA) for 2 h, rinsed once, and seeded at a density of 5×10^4 cells/well over the monolayers. Tumor cells were left to invade the HUVEC monolayer for 24 h in MCDB-131 complete media containing 1% serum with or without addition of 1.5 μM LPC. MM1 cells were plated on the mesothelial monolayers in 2% fetal bovine serum-supplemented DMEM medium in the presence of 100 units/ml penicillin G and 10 μg/ml streptomycin with or without 1.5 μM LPC (5 μM for the mesothelium cells) and invasion was allowed to proceed for 20 h. The day after MM1 cell seeding, non-invaded tumor cells were removed by repeated five rinses of the HUVEC monolayer (three rinses for the mesothelial monolayers) with PBS (containing Ca^2+ and Mg^2+) followed by fixation with 10% buffered formalin. The number of tumor cells that penetrated the monolayer was photographed under a NIKON TiU inverted microscope using phase-contrast and fluorescence illumination in a minimum of five non-overlapping fields at 100× magnification. The fluorescent images were overlayed on top of the phase contrast images using the Elements BR software (version 3.1x) and the invaded MM1 cells showing the characteristic flattened morphology in the plane of focus underneath the monolayer were counted. […]

[3] = 10 μM compound, 2 nM recombinant human ATX, 2 h
[4] = affinity for enzyme substrate complex

SMILES | remaining activity at 10 µM (recombinant human ATX; [3]) [%] | inhibition at 10 µM (recombinant human ATX) [%] | IC50 [1] [µM] | ATX Mechanism of inhibition [1] | Ki [1, 4] [µM] | Ki ([1]; affinity for free enzyme) [µM] | LPC-dependent invasion of the HUVEC monolayer [2] | basal rate of invasion [2] | inhibition at 10 µM (recombinant human ATX; [3]) [%]
CCCCCCCCCCCCCCCc1ccc(CP(=O)(O)O)cc1 [Compound 22, 4-Pentadecylbenzylphosphonic acid] | 5.2 | 95 | 0.17 | Mixed | 0.28 | 0.27 | dose-dependently inhibited; also recorded: blockage | did not reduce | 
CCCCCCCCCCC/C=C/c1ccc2cc(CP(=O)(O)O)ccc2c1 [Compound 30b, (E)-6-Tridec-1-enyl-naphthalen-2-yl-methylphosphonic acid] | 17.3 |  | 1.4 | MIXED | 1.01 | 1.5 | dose-dependently inhibited | did not reduce | 83
